These results are taken from PMC4865845, “A human genome-wide loss-of-function screen identifies effective chikungunya antiviral drugs” (Nature Communications, 2016).

The subject of the data set is CHIKV. It counts as cell-based, chikungunya virus.
“s18704 (sense GCAGATTATTTGCAAGCGA; chemistry not given here) [reference compound]” showed a Score_si3 of -0.73.

The substance “Hs_FLJ31164_3 (sense GAAGCTGTTGATAGTATTGAA; chemistry not given here)” gave a Score_si1 of 1.5.

Consider “s34679 (GGAAAGAAGGGAATGAGTT; chemistry not given here)”, for which the Score_si2 came to 1.1.

In the case of “s194444 (sense GCTGCGTCTCCCTTCCAAA; chemistry not given here) [reference compound]”, the Score_si4 was -0.58.

As for “s6350 (sense GCCCATATACATTCTGCAA; chemistry not given here) [reference compound]”, the Score_si4 is reported as -0.73.

As for “s9666 (CGTGTACTCTGTTTCGACA; chemistry not given here) [reference compound]”, the Score_si4 is reported as -0.83.

Turning to “Hs_UBE2C_3 (GCCCTTGTATATTAAATAAAT; chemistry not given here) [reference compound]”, the Score_si4 is -0.41.

As to “Hs_PTBP1_3 (sense CGACATAATCTCTGTATTATA; chemistry not given here) [reference compound]”, the Score_si3 is -0.58.

The substance “Hs_NUDT1_5 (CCGCGAGGTGGACACGGTCTA; chemistry not given here)” had a Score_si1 of 2.08.

For “s16837 (CAATGATCCAATCCACGAA; chemistry not given here)”, the Score_si1 is 1.36.

Turning to “Hs_ACO2_5 (CGGGAAGACATTGCCAATCTA; chemistry not given here)”, the Score_si1 turned out to be 2.43.

Consider “s17000 (GATGAAAGGTTACAATCCA; chemistry not given here)”, for which the Score_si3 is reported as 1.29.

Regarding “s4918 (sense GGCACTTACTATGACAATT; chemistry not given here)”, the Score_si3 is on record as 1.02.

“Hs_TREX2_1 (CACAATGGCTTTGATTATGAT; chemistry not given here) [reference compound]”: the Score_si1 is -2.42.

For “Hs_AP3S2_2 (CAGGGCTTAGGCGCCCATAAA; chemistry not given here)”, the Score_si1 was 1.97.

Turning to “s33489 (GGACTTCTGAAAATTCGCA; chemistry not given here)”, the Score_si2 came out at 1.9.

“Hs_RAB3D_3 (sense CTGGAACTATGGACCACATTA; chemistry not given here)” returned a Score_si4 of 0.77.

The substance “Hs_RASL11B_2 (sense ATGCTTTGGCTTAAACTGTAA; chemistry not given here)” had a Score_si1 of 2.53.

Turning to “Hs_ZA20D1_1 (AAGGAGGTTCTCAGTCAATAA; chemistry not given here)”, the Score_si2 was 1.25.

On to “Hs_RARSL_3 (sense CACAGGAGTCTTCCTACAGTA; chemistry not given here) [reference compound]”, for which the Score_si1 is listed as -2.94.

As for “Hs_DLD_4 (TCGCTTGAATTTAGACAAGAT; chemistry not given here)”, the Score_si2 worked out at 1.23.

Consider “Hs_ATF1_8 (CTGCATCAGGAGATATGCAAA; chemistry not given here) [reference compound]”, for which the Score_si1 is given as -1.45.

For “s31790 (GGCTGTTCCTGAGACTGCA; chemistry not given here)”, the Score_si4 was determined as 0.92.

“Hs_PITRM1_2 (CCGGTGAATTACGTGGGTGAA; chemistry not given here) [reference compound]” had a Score_si4 of -0.68.

As to “Hs_RARSL_6 (sense TAGATCGAATGGACAAGTATA; chemistry not given here) [reference compound]”, the Score_si2 was -1.49.

Take “Hs_TRRAP_1 (AAGATTCGACAGCAAGTTAAA; chemistry not given here)”: the Score_si4 was found to be 1.01.

Take “s32096 (GTTCCAGTATGGGAATTAT; chemistry not given here)”: the Score_si3 is on record as 1.63.

As for “Hs_MRPS12_2 (CTGCTGGGACAAGACACTGTA; chemistry not given here)”, the Score_si2 is 1.92.

In the case of “s29015 (GAGAGTATATTGACTATGA; chemistry not given here)”, the Score_si4 is 0.52.

Take “s25487 (sense AGTATTTGTTGGTTCATAA; chemistry not given here)”: the Score_si2 was found to be 1.54.

For “Hs_CRSP8_1 (sense AACGAGAATGTCTACACAGAA; chemistry not given here) [reference compound]”, the Score_si1 was -2.6.

Turning to “Hs_RPS6KC1_1 (sense CCGGGTTGTTTCACGAAGAAA; chemistry not given here) [reference compound]”, the Score_si2 is reported as -1.09.

On to “s18076 (GAAATACCCTATTACCAAA; chemistry not given here) [reference compound]”, for which the Score_si3 is reported as -0.61.

Regarding “s5569 (sense AGGCTGAAGCTAATAAGAA; chemistry not given here)”, the Score_si3 worked out at 0.16.

Substance “Hs_PPP1R15A_3 (CAGGATCAGCCGAGGATGAAA; chemistry not given here)” registered a Score_si3 of 1.25.

Regarding “s38295 (GCAATTCTGACGACAATAT; chemistry not given here)”, the Score_si3 stood at 1.57.

Take “Hs_RXRA_4 (sense CTCATCGGCCTTGTAGTTGTA; chemistry not given here)”: the Score_si2 came out at 1.74.

In turn, “Hs_P4HB_2 (CTATTTCACAATCGAATTGAA; chemistry not given here)” came in with a Score_si3 of 1.09.

Substance “Hs_RXRA_3 (sense TCCGTACGATTGTCTCTGAAA; chemistry not given here)” yielded a Score_si4 of 0.81.

“s17302 (GCTCCTTTAGGTTATGATA; chemistry not given here)” registered a Score_si4 of -0.05.

On to “s38293 (GTAACAACAAATACTCATA; chemistry not given here)”, for which the Score_si2 came to 1.65.

The substance “Hs_DHX38_2 (CAGCAGTGAATTTGCAAAGAA; chemistry not given here)” registered a Score_si4 of 1.02.

The substance “Hs_NPEPL1_1 (CTGATTTATAGGGCAAGAGAA; chemistry not given here)” registered a Score_si4 of 1.11.

For “Hs_DOK6_1 (TACGCCAAACCTGGATATTTA; chemistry not given here) [reference compound]”, the Score_si3 is on record as -0.32.

“s3145 (GACCCTTACCTGGAAGTTT; chemistry not given here)” displayed a Score_si2 of 0.19.

As for “s29268 (GGATGCGAAAGACAGAGTA; chemistry not given here)”, the Score_si2 is 1.55.

Regarding “Hs_TADA3L_1 (sense CTGACCGAACTGGACACTAAA; chemistry not given here) [reference compound]”, the Score_si2 is on record as -1.72.

“s6097 (sense TCAGGACCCTGTACACCCA; chemistry not given here)” yielded a Score_si4 of 0.9.

As for “s51651 (sense TGAGCAGTGAGAACCCATA; chemistry not given here)”, the Score_si2 turned out to be 1.55.

In turn, “s5570 (sense TGAACAAGATGGTATCAAA; chemistry not given here)” came in with a Score_si4 of -0.08.

“s7586 (sense CCTACTGTCTGGTAGCGAT; chemistry not given here)” gave a Score_si2 of 1.49.

“s35400 (ACGCAGAGGCGGGAACAAA; chemistry not given here)” showed a Score_si3 of 0.6.
